Experimental data: patent publication US5801165A, “Antiinflammatory, immunosuppressive and antialleric 16, 17-alkylidioxy-steroids” (Rhone-Poulenc Rorer Limited, priority 1992, dated 1998)

Molecular target: T1, Rat thymus glucocorticoid receptor (Rattus norvegicus, UniProt P06536)
T1 construct: The supernatant cytosol is used as the source of receptor; from tissue; host or cells: thymus of male adrenalectomised rats, 100,000 g supernatant cytosol
T1 sequence (P06536 1-795): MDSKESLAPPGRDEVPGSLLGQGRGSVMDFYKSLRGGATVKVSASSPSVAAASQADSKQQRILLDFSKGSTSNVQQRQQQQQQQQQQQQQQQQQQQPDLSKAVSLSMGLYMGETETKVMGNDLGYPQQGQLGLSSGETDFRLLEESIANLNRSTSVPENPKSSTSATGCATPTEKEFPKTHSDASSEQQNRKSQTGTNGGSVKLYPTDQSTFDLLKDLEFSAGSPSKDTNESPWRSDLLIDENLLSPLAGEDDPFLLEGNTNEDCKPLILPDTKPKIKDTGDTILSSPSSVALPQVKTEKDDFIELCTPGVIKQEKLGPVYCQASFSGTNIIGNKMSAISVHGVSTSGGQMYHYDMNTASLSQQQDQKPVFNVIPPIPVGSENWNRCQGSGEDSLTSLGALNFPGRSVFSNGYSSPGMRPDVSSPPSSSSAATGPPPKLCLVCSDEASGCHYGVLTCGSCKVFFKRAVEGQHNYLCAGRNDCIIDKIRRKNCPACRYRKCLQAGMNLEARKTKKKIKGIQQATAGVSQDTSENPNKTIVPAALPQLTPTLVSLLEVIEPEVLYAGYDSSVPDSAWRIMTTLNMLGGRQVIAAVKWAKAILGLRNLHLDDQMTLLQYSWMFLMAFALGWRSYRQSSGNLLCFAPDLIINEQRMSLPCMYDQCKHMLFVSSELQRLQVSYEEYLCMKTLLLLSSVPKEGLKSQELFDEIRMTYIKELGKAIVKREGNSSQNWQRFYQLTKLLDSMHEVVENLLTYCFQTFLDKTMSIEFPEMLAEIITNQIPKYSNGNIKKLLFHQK
Assay: Steroid binding to the rat thymus glucocorticoid receptor ([3H] dexamethasone displacement)
Conditions: not given
Text: GLUCOCORTICOID AGONIST ACTIVITY
STEROID BINDING TO THE RAT THYMUS GLUCOCORTICOID RECEPTOR
Thymi of male adrenalectomised rats are removed and homogenised in 3-(N-morpholino)propanesulphonic acid dithiothreitol buffer, and centrifuged at 100,000 g. The supernatant cytosol is used as the source of receptor. […] Bound [^3 H] dexamethasone is separated from free dexamethasone by a dextran coated charcoal technique and is quantified by liquid scintillation counting.

Structure (SMILES)	IC50 [nM]
CS[C@@]12OC(C)(C)O[C@@H]1C[C@H]1[C@@H]3CCC4=CC(=O)C=C[C@]4(C)[C@@]3(F)[C@@H](O)C[C@@]12C [9α-Fluoro-11β-hydroxy-16α,17α-isopropylidenedioxy-17β-(methylthio)androsta-1,4-dien-3-one]	1.6
CCC[C@@H]1O[C@@H]2C[C@H]3[C@@H]4C[C@H](F)C5=CC(=O)C=C[C@]5(C)[C@@]4(F)[C@@H](O)C[C@]3(C)[C@]2(SCF)O1 [(20R)-16α,17α-Butylidenedioxy-6α,9α-difluoro-11β-hydroxy-17β-(fluoromethylthio)androsta-1,4-dien-3-one]	2.7
CCC[C@@H]1O[C@@H]2C[C@H]3[C@@H]4C[C@H](F)C5=CC(=O)C=C[C@]5(C)[C@@]4(F)[C@@H](O)C[C@]3(C)[C@]2(SC)O1 [(20R)-16α,17α-butylidenedioxy-6α,9α-difluoro-11β-hydroxy-17β-(methylthio)-androsta-1,4-dien-3-one]	3.7
CCCC1O[C@@H]2C[C@H]3[C@@H]4CCC5=CC(=O)C=C[C@]5(C)[C@@]4(F)[C@@H](O)C[C@]3(C)[C@]2(Sc2ccccn2)O1 (stereo partly drawn) [(20R,S)-16α,17α-Butylidenedioxy-9α-fluoro-11β-hydroxy-17β-(2-pyridylthio)androsta-1,4-dien-3-one]	11.3

Same assay, conditions: 4 nM [3H] dexamethasone, 24 hours at 4° C., rat thymus cytosol; read-out: IC50 (concentration reducing [3H] dexamethasone binding by 50%)

Structure (SMILES)	IC50 [nM]
CC1(C)O[C@@H]2C[C@H]3[C@@H]4C[C@H](F)C5=CC(=O)C=C[C@]5(C)[C@@]4(F)[C@@H](O)C[C@]3(C)[C@]2(SCF)O1 [6α,9α-Difluoro-11β-hydroxy-16α,17α-isopropylidenedioxy-17β-(fluoromethylthio)androsta-1,4-dien-3-one]	4.1
CS[C@@]12OC(C)(C)O[C@@H]1C[C@H]1[C@@H]3C[C@H](F)C4=CC(=O)C=C[C@]4(C)[C@@]3(F)[C@@H](O)C[C@@]12C [6α,9α-Difluoro-11β-hydroxy-16α,17α-isopropylidenedioxy-17β-(methylthio)androsta-1,4-dien-3-one]	3.2
CC1(C)O[C@@H]2C[C@H]3[C@@H]4CCC5=CC(=O)C=C[C@]5(C)[C@@]4(F)[C@@H](O)C[C@]3(C)[C@]2(S(C)(=O)=O)O1 [9α-Fluoro-11β-hydroxy-16α,17α-isopropylidene-dioxy-17β-methylsulphonylandrosta-1,4-dien-3-one]	3.8
CC1(C)O[C@@H]2C[C@H]3[C@@H]4CCC5=CC(=O)C=C[C@]5(C)[C@@]4(F)[C@@H](O)C[C@]3(C)[C@]2(Sc2ccccn2)O1 [9α-Fluoro-11β-hydroxy-16α,17α-isopropylidenedioxy-17β-(2-pyridylthio)androsta-1,4-dien-3-one]	27
CCC[C@@H]1O[C@@H]2C[C@H]3[C@@H]4C[C@H](F)C5=CC(=O)CC[C@]5(C)[C@@]4(F)[C@@H](O)C[C@]3(C)[C@]2(SCF)O1 [(20R)-6α,9α-Difluoro-11β-hydroxy-16α,17α-butylidenedioxy-17β-fluoromethylthioandrost-4-en-3-one]	3
CCC[C@@H]1O[C@@H]2C[C@H]3[C@@H]4CCC5=CC(=O)C=C[C@]5(C)[C@@]4(F)[C@@H](O)C[C@]3(C)[C@]2(SCF)O1 [(20R)-16α,17α-Butylidenedioxy-9α-fluoro-11β-hydroxy-17β-(fluoromethylthio)androsta-1,4-dien-3-one]	7.5
CCC[C@@H]1O[C@@H]2C[C@H]3[C@@H]4CCC5=CC(=O)C=C[C@]5(C)[C@@]4(F)[C@@H](O)C[C@]3(C)[C@]2(SC)O1 [(20R)-16α,17α-Butylidenedioxy-9α-fluoro-11β-hydroxy-17β-(methylthio)androsta-1,4-dien-3-one]	1.7
C/C=C/[C@@H]1O[C@@H]2C[C@H]3[C@@H]4CCC5=CC(=O)C=C[C@]5(C)[C@@]4(F)[C@@H](O)C[C@]3(C)[C@]2(SC)O1 [(20R)-16α,17α-[(E)-2-Butenylidenedioxy]-9α-fluoro-11β-hydroxy-17β-(methylthio)androsta-1,4-dien-3-one]	2.6
CCC[C@@H]1O[C@@H]2C[C@H]3[C@@H]4C[C@H](F)C5CC(=O)CC[C@]5(C)[C@@]4(F)[C@@H](O)C[C@]3(C)[C@]2(SC)O1 (stereo partly drawn) [(20R)-16α,17α-butylidenedioxy-6α,9α-difluoro-11β-hydroxy-17β-(methylthio)androstan-3-one]	2.6
CCC[C@@H]1O[C@@H]2C[C@H]3[C@@H]4CC(=O)C5=CC(=O)C=C[C@]5(C)[C@@]4(F)[C@@H](O)C[C@]3(C)[C@]2(SC)O1 [(20R)-16α,17α-butylidenedioxy-9α-fluoro-11β-hydroxy-17β-(methylthio)androsta-1,4-diene-3,6-dione]	2.4
CCCC1O[C@@H]2C[C@H]3[C@@H]4CCC5=CC(=O)C=C[C@]5(C)[C@@]4(F)[C@@H](O)C[C@]3(C)[C@]2(SC(C)C)O1 (stereo partly drawn) [(20R,S)-16α,17α-Butylidenedioxy-9α-fluoro-11β-hydroxy-17β-(isopropylthio)androsta-1,4-dien-3-one]	5.5
CCCC1O[C@@H]2C[C@H]3[C@@H]4CCC5=CC(=O)C=C[C@]5(C)[C@@]4(F)[C@@H](O)C[C@]3(C)[C@]2(SCC)O1 (stereo partly drawn) [(20R,S)-16α,17α-Butylidenedioxy-17β-ethylthio-9α-fluoro-11β-hydroxyandrosta-1,4-dien-3-one]	4.1
CCC[C@H]1O[C@@H]2C[C@H]3[C@@H]4C[C@H](F)C5=CC(=O)CC[C@]5(C)[C@@]4(F)[C@@H](O)C[C@]3(C)[C@]2(SC)O1 [(20S)-16α,17α-Butylidenedioxy-6α,9α-difluoro-11β-hydroxy-17β-(methylthio)androst-4-ene-3-one]	2.9
CCCC1O[C@@H]2C[C@H]3[C@@H]4CC(=O)C5=CC(=O)CC[C@]5(C)[C@@]4(F)[C@@H](O)C[C@]3(C)[C@]2(SC)O1 (stereo partly drawn) [(20S)-16α,17α-butylidenedioxy-6α,9α-fluoro-11β-hydroxy-(methylthio)androst-4-en-3,6-dione]	3.4

Same assay, conditions: read-out: IC50 (concentration reducing [3H] dexamethasone binding by 50%); 4 nM [3H] dexamethasone, 24 hours at 4° C., rat thymus cytosol

Structure (SMILES)	IC50 [nM]
CCC[C@@H]1O[C@@H]2C[C@H]3[C@@H]4CCC5=CC(=O)C=C[C@]5(C)[C@@]4(F)[C@@H](O)C[C@]3(C)[C@]2([S+](C)[O-])O1 (stereo partly drawn) [(20R)-9α-Fluoro-11β-hydroxy-16α,17α-butylidenedioxy-17β-methylsulphinylandrosta-1,4-dien-3-one]	6.6
CCC[C@H]1O[C@@H]2C[C@H]3[C@@H]4C[C@H](F)C5=CC(=O)C=C[C@]5(C)[C@@]4(F)[C@@H](O)C[C@]3(C)[C@]2(SCF)O1 [(20S)-6α,9α-difluoro-11β-hydroxy-16α,17α-butylidene-fluoromethylthioandrosta-1,4-dien-3-one]	2.5
